Results reported in patent US20230390315A1, “COMPOSITIONS AND METHODS FOR TREATING ISCHEMIC CONDITIONS” (The Regents of the University of California, priority 2020, published 2023).
“Also recorded” adds a separate entry of the source. Each block holds one compound with its values, some of them ahead of it.

Key:
[1] = system: bovine choroidal microvascular endothelial cells (BCEC); assay: BCEC proliferation assay; type: cell-based; conditions: for stimulation of BCEC proliferation by structurally related molecules: with or without VEGF, 0.04 μM-5 mM; for block of ManN effects on BCEC proliferation by monosaccharides: monosaccharide at maximum 1:10 molar ratio, added after 2 hours ManN; for stimulatory effect of hexosamines on BCEC proliferation: tested alongside ManN, FIG. 1D
Experimental: Proliferation assays with BCECs and BRECs were performed. Log-phase growing BCECs or BRECs (passage <10) were trypsinized, re-suspended and seeded in 96-well plates (no coating) in low-glucose DMEM supplemented with 10% bovine calf serum, 2 mM glutamine, and antibiotics (growth medium), at a density of 1200-1500 cells per well in 200 μl volume. All reagents were added at the indicated final concentrations. […] Fluorescence was measured at 530 nm excitation wavelength and 590 nm emission wavelength. The experiments were repeated at least three times. […] On each 96-well plate, untreated and VEGF-treated (10/ng/ml) wells were included to monitor plate-to-plate variations. 20% methanol or 0.05% DMSO served as negative controls. 0.05% DMSO served as negative controls when Cas was tested in these cells. Human […] and human adult […] were split into Gelatin-coated 96 wells (2000 cells per well) in low glucose DMEM containing 10% FBS. 1200 cells/well was set up for proliferation assay in low glucose media containing FBS. […] HUVEC (p7-10) were grown on gelatin-coated plate until it reached 70-80% confluency. On the day of the assay, cells were dissociated with 0.05% trypsin, which was neutralized with 0.5% FBS-containing EBM. Cells were briefly spun and then re-suspended in 0.5% FBS-media. Cells were counted and plated in 96-well, 1000 cells/well. Triplicate wells were used for each treatment. Data were collected at day 3, and then cells were fixed in 4% paraformaldehyde for 15 min before adding crystal violet. Cell-covered areas were quantified after taking pictures by Image J software.

Bip, CHOP and ATF-6 = assay: Western blot of UPR responsive proteins in BCECs; type: cell-based, bovine; conditions: for prevention of CHOP induction by ManN: 2 mM 4-PBA or 500 uM TUDCA, ManN at 400 uM and 5 mM; for restoration of ATF-6 expression: ManN at 400 uM
Experimental: (§1) Cells were allowed to reach ˜80% confluency in 12-well plates. […] At various time points, plates were taken out of the incubator and kept on ice. Cell monolayers were first washed once with ice-cold PBS before lysis with 250 μl of Pierce RIPA buffer (ThermoFisher Scientific, Rockford, IL) or use 50 mM Tris-HCl (pH 7.6), 150 mM NaCl, 10% Glycerol, 1% NP-40 containing protease/Phosphatase inhibitor cocktail (100×) (Cell signaling, #5872). Lysates were collected and mixed with 4×Bolt LDS Sample Buffer (Novex, Carlsbad, CA) in the presence of Halt protease inhibitors and phosphatase inhibitor cocktail (ThermoFisher scientific, #NP0007). The samples were subjected to SDS-PAGE (Bolt 4-12% Bis-Tris Plus, Invitrogen) using Bolt MES SDS running buffer or NuPAGE 3-8% Tris-Acetate gel using Tris-Acetate SDS running buffer (Novex). HUVECs (passage 6-8) were plated in EBM-2 basal medium (Lonza) with 0.2% FBS. […] Equal amounts of protein lysates were analyzed by SDS-PAGE and blotted with the indicated antibodies. Proteins were transferred using Tris-Glycine buffer with 20% Methanol (Proteonomics grade) (Apex BioResearch Products). Membranes were first incubated with 5% milk in TBST, pH 7.6 (TEKnova, Hollister, CA), followed by blotting with primary and secondary antibodies. ECL anti-rabbit IgG, horseradish peroxidase linked whole antibody from donkey or sheep anti-mouse were obtained from GE Healthcare (UK limited). SuperSignal West Dura Extended Duration substrate was from ThermoFisher Scientific. In some cases, the same PVDF membranes were stripped by 8-min incubation in the Restore Plus Western Blot Stripping Buffer (ThermoFisher Scientific) to show total specific protein expression, followed by second stripping for β-actin expression.

[2] = system: ERK, AKT, mTOR, CREB, ACC and eNOS; assay: Western blot of signal transduction pathways in BCECs; type: cell-based, bovine
Experimental: as §1

VEGFR2 = assay: Western blot of VEGFR2 molecular mass in BCECs and BRECs; type: cell-based, bovine; conditions: 24 hours; SDS-PAGE
Experimental: Glycerol-free PNGase F was obtained from New England Biolabs (Ipswich, MA). Briefly, BCECs were lysed with NP-40 containing proteinase inhibitors (Thermo Scientific, Waltham, MA). Lysates were cleared at 4° C. at 5000 g for 25 mins. Total protein content was measured using Pierce BCA protein assay kit (ThermoScientific). […] of protein was mixed with 10× denaturing buffer and H2O to a total volume of […]. Glycoproteins were denatured at 100° C. for 10 mins, followed by adding Glycobuffer and PNGase F. The reaction was carried out at 37° C. for 2 hr.
as §1

JNK/c-Jun = assay: Western blot of JNK pathway activation in BCECs; type: cell-based, bovine; conditions: media without growth factors
Experimental: as §1, with “80%” for “˜80%”

[3] = system: BCEC confluent monolayers; assay: BCEC scratch assay; type: cell-based, bovine; conditions: over 48 hours relative to control
Experimental: BCECs (passage 6-10) and HUVEC (passage 6-8) were used in this assay. Cells were grown until about 80% confluency in 6-well plates, washed twice with PBS and then starved in serum-free DMEM (low Glucose, Hyclone) for 5 hrs before making a “scratch” using 1 ml tip. Cell monolayers were briefly washed once with serum-free media, followed by various treatments in media containing 1% FBS. 48 hrs later, the assay was stopped by adding 2 ml 4% paraformaldehyde. 20 min later, fixed cells were stained with 1 ml Crystal Violet (Sigma). Plates were washed gently under the running tap water and air-dried before taking pictures. Images were acquired by ZEISS Discovery […] microscopy equipped with […] camera. Quantification of wound closure was done using AxioVision LE Rel.4.4 software. Six images were taken for each sample and six measurements (in pixel) were made on each image using AxioVision LE Rel.4.4 software.

ERK and AKT = assay: Western blot of ERK and AKT activation in HUVEC and hDMVECs; type: cell-based, human; conditions: hDMVECs
Experimental: as §1, with “80%” for “˜80%”, “ECL anti-rabbit IgG, horseradish peroxidase linked whole antibody from donkey or sheep anti-mouse were obtained from GE Healthcare (UK limited). SuperSignal West Dura Extended Duration substrate was from ThermoFisher Scientific. In some cases, the same PVDF membranes were stripped by 8-min incubation in the Restore Plus Western Blot Stripping Buffer (ThermoFisher Scientific) to show total specific protein expression, followed by second stripping for β-actin expression.” left out

[4] = mouse, in vivo, po
retinal vasculature = assay: Retinal neovascularization after intravitreal injection; type: in vivo, mouse; conditions: intravitreal 500 ng ManN or Kif, 200 ng bFGF; seven days
Experimental: Assessment of retinal angiogenesis following intravitreal administration was done. Briefly, 6-8 weeks old C57BL/6 male mice were randomly allocated to different groups and anesthetized with ketamine/Xylazine cocktail. The indicated amounts of ManN, Kif or bFGF (R&D systems, AF-233-NA) in 1 μl of PBS and PBS vehicle control were injected intravitreally with a 33-gauge Hamilton syringe. Seven days after injection, animals were euthanized. Eyes were then enucleated and fixed in 4% paraformaldehyde (PFA) for 30 mins. Retinas were separated and stained with anti-CD31 immunofluorescence (IF) to evidence the vasculature. Evaluations were performed by an investigator blinded to the treatment. For CD31 IF, rat anti-mouse antibody (BD Biosciences, CAT #550274) was diluted 1:100 and incubated overnight at 4° C. After 4-hour incubation with the Alexa Fluor-488-conjugated anti-rat antibody (Life Technologies, A11006), whole mounts were imaged via the 488 nm channel using A1R Confocal STORM super-resolution system (Nikon). Quantification of vascular density in choroids and retina was carried out by Image J. Each experiment was repeated three times with similar results, and each treatment group consists of 5 individual samples.

Compound: O=C(O)CCCc1ccccc1 [4-PBA, 4-phenylbutyric acid]
additivity between ManN and VEGF after chemical chaperon pre-treatment ([1]; 1 mM 4-PBA): largely abolished | reversal of bell-shaped activity of ManN on BCEC proliferation by chemical chaperon ([1]; pre-treating with 1 mM 4-PBA for 4 hours, absence or presence of VEGF): effectively reverse the bell-shaped activity of ManN | prevention of CHOP induction by ManN (Bip, CHOP and ATF-6): prevent the induction of CHOP expression | restoration of ATF-6 expression (Bip, CHOP and ATF-6): restore the expression of ATF-6

Compound: O[C@H]1[C@H](O)[C@@H](O)CN2CC[C@H](O)[C@H]12 [Cas, Castanospermine, reference compound]
BCEC proliferation with N-glycosylation inhibitors ([1]; absence or presence of 5 ng/ml VEGF): stimulated in a dose-dependent fashion | activation of ERK ([2]; 40 uM, BCECs): less obvious; also recorded: did not activate ERK | VEGFR2 molecular mass after glycosylation inhibitor treatment (VEGFR2): reduction in VEGFR2 molecular mass | activation of JNK pathway (JNK and downstream c-Jun) (JNK/c-Jun): able to activate the JNK pathway | activity of glycosylation inhibitors in BCEC scratch assay [3]: significant activity | activation of ERK (ERK and AKT): less obvious | Bip expression with glycosylation inhibitors (Bip, CHOP and ATF-6; media without growth factors for 24 hours): dose-dependent induction of Bip expression

Compound: Cl.NCC(=O)[C@@H](O)[C@H](O)[C@H](O)CO [D-isoglucosamine, 1-Amino-1-deoxy-D-Fructose hydrochloride]
stimulation of BCEC proliferation by structurally related molecules [1]: None of these molecules stimulated BCEC proliferation

ManN-6p in ischemic leg muscle [4]: 0.91+/−0.24 nmol/mg protein
Compound: N[C@@H]1C(O)O[C@H](COP(=O)(O)O)[C@@H](O)[C@@H]1O (stereo partly drawn) [ManN-6p, ManN-6-phosphate]

Compound: CC(=O)N[C@@H]1C(O)O[C@H](CO)[C@@H](O)[C@@H]1O (stereo partly drawn) [ManNAc, N-acetyl-Mannosamine, reference compound]
activation of ERK, AKT, mTOR, CREB, ACC and eNOS by other agents ([2]; 40 μM, compared with ManN): induced a similar activation

Compound: CC(=O)N[C@H]1[C@H]([C@H](O)[C@H](O)CO)OC(O)(C(=O)O)C[C@@H]1O (stereo partly drawn) [N-Acetyl-neuraminic acid, N-Acetylneuraminic acid]
stimulation of BCEC proliferation by structurally related molecules [1]: None of these molecules stimulated BCEC proliferation

Compound: C[C@H](CCC(=O)NCCS(=O)(=O)O)[C@H]1CC[C@H]2[C@@H]3[C@@H](O)C[C@@H]4C[C@H](O)CC[C@]4(C)[C@H]3CC[C@]12C [TUDCA, tauroursodeoxycholic acid]
prevention of CHOP induction by ManN (Bip, CHOP and ATF-6): not | restoration of ATF-6 expression (Bip, CHOP and ATF-6): much weaker

Compound: C[C@H](O)[C@@H](O)[C@@H](O)[C@H](O)C=O [fucose, reference compound]
block of ManN effects on BCEC proliferation by monosaccharides [1]: not

Compound: N[C@H]1C(O)O[C@H](CO)[C@H](O)[C@@H]1O (stereo partly drawn) [galactosamine, D-(+)-Galactosamine]
stimulatory effect of hexosamines on BCEC proliferation [1]: none of these hexosamines had significant stimulatory effects

Compound: O=C[C@H](O)[C@@H](O)[C@@H](O)[C@H](O)CO [galactose, reference compound]
block of ManN effects on BCEC proliferation by monosaccharides [1]: not

Compound: N[C@H]1C(O)O[C@H](CO)[C@@H](O)[C@@H]1O (stereo partly drawn) [glucosamine, D-(+)-Glucosamine]
stimulatory effect of hexosamines on BCEC proliferation [1]: none of these hexosamines had significant stimulatory effects

Compound: CNC[C@H](O)[C@@H](O)[C@H](O)[C@H](O)CO [meglumine, Meglumine]
stimulation of BCEC proliferation by structurally related molecules [1]: None of these molecules stimulated BCEC proliferation

Compound: C[C@@H](O[C@H]1[C@H](O)[C@@H](CO)OC(O)[C@@H]1N)C(=O)O (stereo partly drawn) [muramic acid, Muramic acid]
stimulation of BCEC proliferation by structurally related molecules [1]: None of these molecules stimulated BCEC proliferation

Compound: bFGF: bFGF growth factor purchased from R&D systems, positive control
increase in density of retinal vessels compared to PBS group (retinal vasculature): about 35%
